In the NIST ThermoML archive (doi:10.1016/j.tca.2017.07.015):
± gives the expanded uncertainty stated by the source.

Columns and labels:
[1] = Crystal; DTA
[2] = Molar enthalpy of transition or fusion; conditions: Crystal; DSC

## ON=Cc1ccccc1 [benzaldehyde oxime]
[1]
  Normal melting temperature: 29.70 ± 0.5 °C
[2]
  Molar enthalpy of transition or fusion: 3.39 ± 0.335 kcal/mol
